For the experiment, the target named is PKMYT1 (Homo sapiens (Human), UniProt Q99640). Briefly: PKMYT1 HTRF Assay. It counts as binding. Particulars: Tracer 178, GST-Tb; compound 10 μM to 0.5 nM; read-out: MYT1 HTRF IC50. The protocol: Example A: PKMYT1 HTRF Assay
Compound serial dilution is performed by Echo, and the final concentrations vary from 10 μM to 0.5 nM. This was filled by the addition of 5 μL/well of Enzyme solution to the assay plate containing the compound. The plate was centrifuged at 1000 rpm for 1 minute, and incubate 15 minutes at 25 ? . Then 5 μL/well of tracer solution (Tracer 178) was added to initiate the reaction, and incubate for 60 minutes at 25° C. Next 5 μL GST-Tb was added into the assay plate, the plate was centrifuged at 1000 rpm for 1 minute, and incubate for 15 minutes at 25 ? . The assay plate was read on Envision.
(TR-FRET usually uses a lanthanide donor and a delayed reading to cut background.)

Each structure is given as a SMILES string.

Chain of PKMYT1 (Q99640 whole entry): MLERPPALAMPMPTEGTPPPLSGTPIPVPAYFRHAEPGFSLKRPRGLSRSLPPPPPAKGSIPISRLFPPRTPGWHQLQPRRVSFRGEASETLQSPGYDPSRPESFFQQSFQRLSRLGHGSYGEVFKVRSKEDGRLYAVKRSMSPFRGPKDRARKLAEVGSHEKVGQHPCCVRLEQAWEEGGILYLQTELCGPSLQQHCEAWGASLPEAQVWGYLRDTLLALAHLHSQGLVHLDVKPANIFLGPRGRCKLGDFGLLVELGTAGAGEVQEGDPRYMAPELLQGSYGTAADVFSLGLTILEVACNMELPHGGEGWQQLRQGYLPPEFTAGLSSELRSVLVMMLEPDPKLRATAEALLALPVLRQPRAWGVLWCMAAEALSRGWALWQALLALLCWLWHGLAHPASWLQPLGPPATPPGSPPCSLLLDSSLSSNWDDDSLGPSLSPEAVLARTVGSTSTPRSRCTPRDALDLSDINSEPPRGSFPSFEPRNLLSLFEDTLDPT

What is called IC50 is the concentration needed to halve the response being measured. Regarding `Cc1ncc(-c2cc3c(C)c(-c4c(C)ccc(O)c4C)cnc3[nH]2)cn1` [Example 26, (R)-2,4-dimethyl-3-(4-methyl-2-(2-methylpyrimidin-5-yl)-1H-pyrrolo[2,3-b]pyridin-5-yl)phenol], the IC50 was below 10 nM. As to `Cc1ncc(-c2cc3c(N)c(-c4c(C)ccc(O)c4C)cnc3[nH]2)cn1` [Example 30, 3-(4-amino-2-(2-methylpyrimidin-5-yl)-1H-pyrrolo[2,3-b]pyridin-5-yl)-2,4-dimethylphenol], the IC50 is 50 to 500 nM. With `Cc1ccc(O)c(C)c1-c1cnc2[nH]c(-c3cnc(N)c(C#N)c3)cc2c1C#N` [Example 130, (S)-2-(6-amino-5-cyanopyridin-3-yl)-5-(3-hydroxy-2,6-dimethylphenyl)-1H-pyrrolo[2,3-b]pyridine-4-carbonitrile] the figure was below 10 nM. Regarding `Cc1ccc(O)c(C)c1-c1cnc2[nH]c(-c3cnc(N4CC(O)C(F)C4)nc3)cc2c1C#N` [Example 100, (R)-2-(2-((3S,4S)-3-fluoro-4-hydroxypyrrolidin-1-yl)pyrimidin-5-yl)-5-(3-hydroxy-2,6-dimethylphenyl)-1H-pyrrolo[2,3-b]pyridine-4-carbonitrile], the IC50 was below 10 nM. As for `Cc1ccc(O)c(C)c1-c1cnc2[nH]c(-c3cnc(N4CC5CC4CO5)nc3)c(Cl)c2c1C#N` (stereo not shown) [Example 44, 2-(2-(2-oxa-5-azabicyclo[2.2.1]heptan-5-yl)pyrimidin-5-yl)-3-chloro-5-(3-hydroxy-2,6-dimethylphenyl)-1H-pyrrolo[2,3-b]pyridine-4-carbonitrile], the figure is below 10 nM; as for `Cc1ccc(O)c(C)c1-c1cnc2[nH]c(-c3cnc(N4C5CC[C@@H]4COC5)nc3)cc2c1C#N` [Example 99, (5R)-2-(2-(3-oxa-8-azabicyclo[3.2.1]octan-8-yl)pyrimidin-5-yl)-5-(3-hydroxy-2,6-dimethylphenyl)-1H-pyrrolo[2,3-b]pyridine-4-carbonitrile], below 10 nM; as for `Cc1ccc(O)c(C)c1-c1cnc2[nH]c(-c3cnc(NC4CC4)nc3)c(Cl)c2c1C#N` [Example 48, (R)-3-chloro-2-(2-(cyclopropylamino)pyrimidin-5-yl)-5-(3-hydroxy-2,6-dimethylphenyl)-1H-pyrrolo[2,3-b]pyridine-4-carbonitrile], below 10 nM. With `Cc1ccc(O)c(C)c1-c1cnc2[nH]c(-c3cnc(N)nc3)c(Cl)c2c1C#N` [Example 40, (R)-2-(2-aminopyrimidin-5-yl)-3-chloro-5-(3-hydroxy-2,6-dimethylphenyl)-1H-pyrrolo[2,3-b]pyridine-4-carbonitrile] the figure was below 10 nM. With `Cc1ccc(O)c(C)c1-c1cnc2[nH]c(-c3cnoc3)cc2c1C#N` [Example 119, (S)-5-(3-hydroxy-2,6-dimethylphenyl)-2-(isoxazol-4-yl)-1H-pyrrolo[2,3-b]pyridine-4-carbonitrile], the IC50 was below 10 nM. Consider `Cc1ccc(O)c(C)c1-c1cnc2[nH]c(-c3cnc(C)c(=O)[nH]3)c(Cl)c2c1C#N` [Example 64, 3-chloro-5-(3-hydroxy-2,6-dimethylphenyl)-2-(5-methyl-6-oxo-1,6-dihydropyrazin-2-yl)-1H-pyrrolo[2,3-b]pyridine-4-carbonitrile], for which the IC50 lay within 10 to 50 nM. In the case of `Cc1ccc(O)c(C)c1-c1cnc2[nH]c(-c3cnc(N4CC(C)(O)C4)nc3)cc2c1C#N` [Example 97, (R)-5-(3-hydroxy-2,6-dimethylphenyl)-2-(2-(3-hydroxy-3-methylazetidin-1-yl)pyrimidin-5-yl)-1H-pyrrolo[2,3-b]pyridine-4-carbonitrile], the IC50 is below 10 nM. For the compound `Cc1ccc(O)c(C)c1-c1cnc2[nH]c(-n3cncn3)cc2c1C#N` [Example 121, (S)-5-(3-hydroxy-2,6-dimethylphenyl)-2-(1H-1,2,4-triazol-1-yl)-1H-pyrrolo[2,3-b]pyridine-4-carbonitrile], the IC50 was below 10 nM. For `Cc1ccc(O)c(C)c1-c1cnc2[nH]c(-c3cnc(NC4CC4)s3)nc2c1` [Example 115, 3-(2-(2-(cyclopropylamino)thiazol-5-yl)-3H-imidazo[4,5-b]pyridin-6-yl)-2,4-dimethylphenol], the IC50 fell in the range of 50 to 500 nM.

The values are drawn from US20250136596A1, “MEMBRANE-ASSOCIATED TYROSINE- AND THREONINE-SPECIFIC CDC2-INHIBITORY KINASE (PKMYT1) INHIBITORS AND USES THEREOF” (Insilico Medicine IP Limited, priority 2022, published 2025).
